According to patent US20030180947A1, “Circadian control of stem/progenitor cell self-renewal and differentiation and of clock controlled gene expression” (priority 2001, published 2003):
Entries after “also recorded” stand apart in the source; their conditions may differ.

What was measured:
[1] = test system: mPer1 expression in the lin− cells; assay: Effect on mPer1 expression in lin− bone marrow cells (relative quantitative RT-PCR); assay type: cell-based, mouse; conditions: 200 nM dexamethasone or 1 μM PMA, 1 or 2 hours, vs ethanol control
Protocol: (§1) Bone marrow cells were incubated with ACK lysing buffer (0.15M NH4Cl, 1 mM KHCO3 and 0.1 mM Na2EDTA; pH7.2) at room temperature for 4 minutes to remove red blood cells. The lin^− (lineage marker-negative) bone marrow cells were obtained by depleting lineage marker-positive cells using the MACS magnetic separation system (Miltenyi Biotec, Auburn, Calif.) according to the manufacturer's instructions. The antibodies used were PE-labeled rat anti-mouse Gr-1, TER119, B220, CD4, CD8, and Mac-1 monoclonal antibodies (all from BD PharMingen, San Diego, Calif.). Briefly, the cells were incubated with the antibody cocktail for the lineage markers described above at 6-10° C. for 15 minutes. After two washes with 1×phosphate-buffered saline (PBS; Sigma, St. Louis, Mo.) supplemented with 0.5% FBS (Hyclone), the cells were incubated with anti-PE antibody-coated magnetic beads (Miltenyi Biotec) at 6-10° C. for 15 minutes. […]
(§2) For each RT-PCR experiment, samples from six time points were analyzed at the same time. […]
(§3) Within each PCR experiment, the linear range of amplification was first determined using cDNA pooled from 6 time points. […]
(§4) As a negative control, the products of the RT reactions, without reverse transcriptase, were subjected to the same PCR amplification. […] Their relative quantities were determined by using the Image-Pro Plus software (Media Cybernetics). […]

[2] = test system: mPer2 expression in the lin− cells; assay: Effect on mPer2 expression in lin− bone marrow cells (relative quantitative RT-PCR); assay type: cell-based, mouse; conditions: 200 nM dexamethasone or 1 μM PMA, 1 or 2 hours, vs ethanol control
Protocol: as §1, §2, §3, §4

Rat-1 fibroblasts = conditions: cultured Rat-1 fibroblasts; Balsalobre et al. 2000; cited from earlier work
mper1 promoter = assay: Per1-luciferase reporter (pGL3-mPer1-7.2 kb) in transfected NIH 3T3 cells; assay type: cell-based, mouse; conditions: NIH 3T3, pGL3-mPer1-7.2 kb; 10^−6 M; 7 hours; FIG. 14
Description: FIG. 14 is a bar graph illustrating the effects of neurotransmitter analog treatment on NIH 3T3 cells transfected with pGL3-mPer1-7.2kb, which contains luciferase under control of a 7.2 kb region of the mper1 promoter. Cells were exposed to 10^−6 M forskolin as a positive control, 10^−6 M isoproterenol (a beta-adrenergic agonist), 10^−6 M propranolol (a beta-adrenergic antagonist), 10^−6 M phenylephrine (an alpha-adrenergic agonist), and 10^−6 M pentolamine (an alpha-adrenergic antagonist) for 7 hours.
H1299 cells were maintained in RPMI1640 (Gibco) with 10% FBS (Hyclone). NIH3T3 cells were maintained in DMEM (Gibco) with 10% FBS (Hyclone). The day before transfection, 3×10^5 cells/well were plated onto six-well plates. Cells were transfected with 500 ng of each expression plasmid, 100 ng of the firefly luciferase reporter construct and 2 ng of the Renilla luciferase control plasmid (pRL-SV40; Promega) using SuperFect transfection reagent (Qiagen) following the manufacturer's instructions. The Renilla luciferase control plasmid was cotrasfected to normalize transfection efficiency. When expression plasmids were omitted, same amount of the pcDNA3 plasmid was used to substitute the expression plasmids. Forty hours after transfection, cells were washed once with 1×PBS (Sigma) and lysed with 500 μl of passive lysis buffer (Promega). Luciferase activity of the cell lysate was assayed with the Dual-Luciferase Reporter Assay System (Promega) using a luminometer (Optocomp1; MGM Instruments) as recommended by the manufacturer.
A Per1-luciferase reporter plasmid was constructed essentially as described above, using a 7.2 kb fragment of the promoter region from mper1, forming pGL3-mPer1-7.2 kb. NIH 3T3 cells were transfected with pGL3-mPer1-7.2 kb as described above and cells were exposed to 10^−6 M forskolin as a positive control, 10^−6 M isoproterenol (a beta-adrenergic agonist), 10^−6 M propranolol (a beta-adrenergic antogonist), 10^−6 M phenylephrine (an alpha-adrenergic agonist), and 10^−6 M pentolamine (an alpha-adrenergic antagonist). Cells were exposed to the neurotransmitters for 7 hours and luciferase activity was measured as described above.

[3] = biological target: T1, mLATS2 fused to the GAL4 DNA binding domain (pGBKT7-mLATS2) (mouse, UniProt P04386 1-147; Q7TSJ6 1-1042); assay: yeast two-hybrid assay
T1 construct: Yeast two-hybrid construct made by inserting the Bsm I-Xho I fragment of pcDNA3-mLATS2 into pGBKT7-mLATS2b; also called mLATS2/2b

Molecule	expression levels relative to the forskolin positive control (mper1 promoter)	luciferase activity relative to control (mper1 promoter)	other results
CCCCCCCCCCCCCC(=O)O[C@@H]1[C@@H](C)[C@@]2(O)[C@@H](C=C(CO)C[C@]3(O)C(=O)C(C)=C[C@@H]23)[C@@H]2C(C)(C)[C@]12OC(C)=O [PMA, phorbol-12-myristate-13-acetate]	–	–	mPer1 expression [1]: not affected; mPer2 expression [2]: neither dexamethasone nor PMA had a significant effect; Per1 induction and circadian gene expression (Rat-1 fibroblasts): induce mPer1 expression and elicit circadian gene expression; also recorded: induce immediate Per1 up-regulation and trigger circadian expression
CC(C)NCC(O)c1ccc(O)c(O)c1 (stereo not shown) [isoproterenol]	slightly diminished	increased luciferase activity	–
Cc1ccc(N(CC2=NCCN2)c2cccc(O)c2)cc1 [pentolamine]	slightly diminished	increased luciferase activity	–
CNC[C@H](O)c1cccc(O)c1 [phenylephrine]	slightly diminished	increased luciferase activity	–
mRBT1C76 fused to the GAL4 activation domain (pGADT7-mRBT1C76) (other, UniProt P04386 768-881, looked up, Yeast two-hybrid construct; also called C-terminal 76 amino acids of mRBT1) ANFNQSGNIADSSLSFTFTNSSNGPNLITTQTNSQALSQPIASSNVHDNFMNNEITASKIDDGNNSKPLSPGWTDQTAYNAFGITTGMFNTTTMDDVYNYLFDDEDTPPNPKKEPQNEIVSQADPVFLEALSSRYLGDSGLDDFFLDIDTSAVEKDVALPPPEPPHSLFCSPGSWEWNELDHIMEIILGS	–	–	binding result [3]: no binding
